Entries after “also recorded” stand apart in the source; their conditions may differ.
Assays:
Assay type in all cases: in vivo, mouse
TPH2 mRNA [1] = assay: TPH2 mRNA levels in murine raphe slice preparation of ovariectomized female mice by real-time RT-PCR; details: prednisolone 10 mpk once daily; FIGS. 7 and 8
Text: Female mice (13 to 16 wks of age) were ovariectomized (C57BL/6s from Charles River; ER Knockout animals from Taconic). Animals were fed a soy-free rodent chow and allowed a minimum of one week to recuperate from surgery and shipping. […] Approximately six hours following the fourth dose, mice were deeply anesthetized with ketamine/xylazine and brains were removed from the skull, placed ventral side up in a mouse brain block on ice, and ice-cold razor blades were inserted into the block at 1 mm intervals. The caudal extent of the hypothalamus was used as an anatomical marker for the placement of the first razor blade, and 4 blades were placed in sequential slots, caudally. The four sections were examined and the two that encompassed the greatest extent of the dorsal raphe were placed in a tube containing […] (Ambion, Austin, Tex.) and placed at 4° C. overnight. Brain slices were removed from […] after 24 hours and stored at −80° C. in fresh tubes.
Two TPH2 primer and probe sets were generated for use in detecting TPH2 by real-time RT-PCR. Murine TPH2 forward primers were mTPH2-514F and mTPH2-1270F, their corresponding sequences are 5′-[…]-3′ (SEQ ID NO:7; corresponding to nucleotides 514 to 535 of the nucleotide sequence encoding TPH2) and 5′-[…]-3′ (SEQ ID NO:8; corresponding to nucleotides 1270 to 1290 of the nucleotide sequence encoding TPH2), respectively. The murine TPH2 reverse primers were mTPH2-585R and mTPH2-1344R, their corresponding sequences are 5′-[…]-3′ (SEQ ID NO:9; corresponding to nucleotides 567 to 585 of the nucleotide sequence encoding TPH2) and 5′-[…]-3′ (SEQ ID NO:10; corresponding to nucleotides 1324 to 1344 of the nucleotide sequence encoding TPH2), respectively. The murine TPH2 probes were mTPH2-565T and mTPH2-1292T, their corresponding sequences are: 5′-[…]-3′ (SEQ ID NO:11; corresponding to nucleotides 539 to 565 of the nucleotide sequence encoding TPH2) and 5′-[…]-3′ (SEQ ID NO:12; corresponding to nucleotides 1292 to 1317 of the nucleotide sequence encoding TPH2), respectively. The probes were labeled at the 5′ end with FAM and the 3′ end with TAMRA.
Isolation of total RNA from mouse raphe slices for real-time PCR analysis using the TAQMAN ABI PRISMS 7700 Detection System, Applied Biosystems, Foster City, Calif. was as follows. Samples were stored in […] at 4° C. overnight followed by removal of […] and storage at −80° C. until isolation of the total RNA (2 slices weigh 25 to 50 mg). Slices were removed from −80° C. and placed in 1.0 mL TRIZOL Reagent in FASTPREP processing tubes. Slices were homogenized with one pass at setting 6 for 30 seconds in FASTPREP 120 homogenizer using LYSING MATRIX D tubes with bead matrix followed by 20 seconds at setting 6 after all samples had been processed. Samples were set at room temperature for 5 minutes to allow for complete dissociation of nucleoprotein complexes followed by centrifugation of the samples at 12,000×g for 5 minutes at 4° C. Homogenates were transferred to 1.5 mL; microcentrifuge tubes and 100 μL BCP (Bromo-3-chloropropane) was added. Samples were vortexed for 15 seconds and set at room temperature for 2 to 3 minutes. Samples were centrifuged at 12,000×g for 15 minutes at 4° C. The aqueous layer was removed and placed in a new RNAse-free sterile 1.5 mL microcentrifuge tube. Five μL of 5 mg/μL glycogen was added to each sample and the samples were vortexed. Five hundred μL of isopropanol was added to each sample. The samples were vortexed for 15 seconds, set at room temperature 10 minutes, followed by centrifugation at 12,000×g for 15 minutes at 4° C. Supernatants were decanted and pellets washed with 500 μL ice cold 75% ethanol.

TPH1 mRNA = TPH1 mRNA levels in murine raphe slice preparation by real-time RT-PCR; details: FIG. 6
Text: Female mice (13 to 16 wks of age) were ovariectomized (C57BL/6s from Charles River; ER Knockout animals from Taconic). Animals were fed a soy-free rodent chow and allowed a minimum of one week to recuperate from surgery and shipping. […] Approximately six hours following the fourth dose, mice were deeply anesthetized with ketamine/xylazine and brains were removed from the skull, placed ventral side up in a mouse brain block on ice, and ice-cold razor blades were inserted into the block at 1 mm intervals. The caudal extent of the hypothalamus was used as an anatomical marker for the placement of the first razor blade, and 4 blades were placed in sequential slots, caudally. The four sections were examined and the two that encompassed the greatest extent of the dorsal raphe were placed in a tube containing RNALATER (Ambion, Austin, Tex.) and placed at 4° C. overnight. Brain slices were removed from RNALATER after 24 hours and stored at −80° C. in fresh tubes.
Isolation of total RNA from mouse raphe slices for real-time PCR analysis using the TAQMAN ABI PRISMS 7700 Detection System, Applied Biosystems, Foster City, Calif. was as follows. Samples were stored in RNALATER at 4° C. overnight followed by removal of RNALATER and storage at −80° C. until isolation of the total RNA (2 slices weigh 25 to 50 mg). Slices were removed from −80° C. and placed in 1.0 mL TRIZOL Reagent in FASTPREP processing tubes. Slices were homogenized with one pass at setting 6 for 30 seconds in FASTPREP 120 homogenizer using LYSING MATRIX D tubes with bead matrix followed by 20 seconds at setting 6 after all samples had been processed. Samples were set at room temperature for 5 minutes to allow for complete dissociation of nucleoprotein complexes followed by centrifugation of the samples at 12,000×g for 5 minutes at 4° C. Homogenates were transferred to 1.5 mL; microcentrifuge tubes and 100 μL BCP (Bromo-3-chloropropane) was added. Samples were vortexed for 15 seconds and set at room temperature for 2 to 3 minutes. Samples were centrifuged at 12,000×g for 15 minutes at 4° C. The aqueous layer was removed and placed in a new RNAse-free sterile 1.5 mL microcentrifuge tube. Five μL of 5 mg/μL glycogen was added to each sample and the samples were vortexed. Five hundred μL of isopropanol was added to each sample. The samples were vortexed for 15 seconds, set at room temperature 10 minutes, followed by centrifugation at 12,000×g for 15 minutes at 4° C. Supernatants were decanted and pellets washed with 500 μL ice cold 75% ethanol. Samples were centrifuged at 12,000×g for 15 minutes at 4° C., ethanol decanted, and pellets air dried for 10 minutes. Pellets were resuspended in 30 μL prewarmed RNASECURE (60° C.), and heated at 60° C. for 10 min. Samples were stored at −80° C. until DNAse treatment and cDNA synthesis.
DNase treatment and cDNA preparation with wt mouse raphe slice total RNA for TAQMAN analysis. DNase treatment using DNA-free kit (Ambion). Five μg of the total RNA sample was aliquotted to each well of a 96 well plate. An 1× DNase I solution was added to each sample (DNase I buffer, DNase I, H2O). Reactions were mixed and incubated at 37° C. for 30 minutes. Reactions were inactivated by addition of DNase inactivation reagent beads, mixed well at room temperature for 3 minutes and centrifuged at 2,500 RPM for 1 minutes at 4° C. (25 μL reactions were run and inactivated with 1/10 volume of inactivation reagent).
Reverse Transcription. A 10 μL of the DNase I-treated total RNA was added to 40 μL of 1× reverse transcription reaction mix (DEPC treated H2O, RT buffer, MgCl2, dNTP mix, random hexamers, RNase inhibitor, and MULTISCRIBE RT) and incubated at 25° C. for 10 minutes, 48° C. for 30 minutes, and 95° C. for 5 minutes. Reverse transcription was halted by the addition of EDTA. Samples were transferred to a storage plate and stored at −20° C. […]

TPH2 mRNA [2] = assay: TPH2 mRNA in raphe slice preparation of male BKTO mice under chronic corticosterone, real-time RT-PCR; details: 14 days, equivalent of 40mg/kg/day
Procedure: (§1) Male BKTO mice (Bantin and Kingman, Hull UK) weighing 25 g at the start of the experiment were briefly anaesthetized using isofluorane. Animals were implanted with 4×5 mg cortic/sterone pellets (Innovative Research of America, catalogue number G-111, 21 day release formulation) or 4× placebo pellets (catalogue number NC-111) this gave an equivalent of 40mg/kg/day of corticosterone. Pellets were implanted using a trochar supplied by the manufacturer which had been modified to allow 4 pellets to be held in one trochar, thus requiring only one incision per animal. The most ideal place to implant the pellet was where there is maximal space between the skin and the muscle such as the lateral side of the neck between the ear and the shoulder-no stitching or wound clipping was required when using this technique. Animals were returned to the home cage and allowed to recover. Fourteen days later, the animals were humanely killed and trunk blood collected into EDTA coated tubes, centrifuged for 10 minutes at 3000 rpm, and plasma removed and frozen on dry ice until ready for analysis. Brains were removed, frozen in isopentane, and stored at −80° C. until ready for analysis. […] Plasma corticosterone was analyzed using a COAT-A-COUNT rat corticosterone radioimmunoassay kit (DPC Products-Order no TKRC1). […]

[3] = Plasma corticosterone in male BKTO mice (radioimmunoassay); details: 4×5 mg pellets, equivalent of 40mg/kg/day, 14 days, FIG. 10, p=0.004
Procedure: as §1

Compound	effect on TPH2 mRNA expression compared to vehicle (TPH2 mRNA [1])	effect on TPH1 mRNA levels (TPH1 mRNA; 10 mpk s.c., ovariectomized mice)	change of TPH1 mRNA levels in response to treatment (TPH1 mRNA; murine raphe slice preparations, dose not stated)	level of TPH2 mRNA in raphe slice preparation (TPH2 mRNA [2]; FIG. 11, p=0.01)	level of TPH2 mRNA in raphe slice preparation (TPH2 mRNA [2]; FIG. 11, p=0.01, listed as corticosterone)	plasma levels after treatment [3]
C[C@]12C=CC(=O)C=C1CC[C@@H]1[C@@H]2[C@@H](O)C[C@@]2(C)[C@H]1CC[C@]2(O)C(=O)CO [prednisolone]	decrease; also recorded: significant reduction	neither 3 mpk of dexamethasone nor 10 mpk prednisolone had any effect; also recorded: no effect	no detectable change	–	–	–
C[C@]12C[C@H](O)[C@H]3[C@@H](CCC4=CC(=O)CC[C@@]43C)[C@@H]1CC[C@@H]2C(=O)CO [corticosterone]	–	–	–	significantly reduced	significant decrease	significant increase

Source: patent US20070274916A1, “Method for Identifying Compounds that Affect Expression of Tryptophan Hydroxylase Isoform 2” (priority 2003, published 2007)
